# Results reported in PubChem BioAssay AID328 (DTP/NCI, 2004).
# Values joined by “and” are separate entries in the source; they are usually repeats but may differ in a detail not shown here. Equal values may be shown once. Inconclusive results and toxic doses are left out.
# Test system: BDF1 mice, P388 leukemia ip, median survival T/C
# Test: NCI In Vivo Anticancer Drug Screen. Data for tumor model P388 Leukemia (intraperitoneal) in B6D2F1 (BDF1) mice
# Conditions: endpoint: median survival time, higher = longer survival
# Outline: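 Survival ratio, drug arm over vehicle arm, in mice with a transplanted tumour.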
# [1] = dose: 100.0 mg/kg/injection, schedule: Q04DX003 (ip), vehicle: saline with Tween-80
# [2] = dose: 100.0 mg/kg/injection, schedule: Q01DX009 (ip), vehicle: saline with Tween-80
# [3] = dose: 200.0 mg/kg/injection, schedule: Q01DX009 (ip), vehicle: saline with Tween-80
# [4] = dose: 100.0 mg/kg/injection, schedule: Q01DX001 (ip), vehicle: saline with Tween-80
# [5] = dose: 200.0 mg/kg/injection, schedule: Q01DX001 (ip), vehicle: saline with Tween-80
# [6] = dose: 400.0 mg/kg/injection, schedule: Q01DX001 (ip), vehicle: saline with Tween-80
smiles,measurement,setting,value
C[n+]1c(/C=C\C=C\N2CCCCC2)sc2ccccc21,T/C,"dose: 0.16 mg/kg/injection, schedule: Q01DX009 (ip), vehicle: Klucel (hydroxypropylcellulose) (HPC)",114 % of control
same,T/C,"dose: 0.31 mg/kg/injection, schedule: Q01DX009 (ip), vehicle: Klucel (hydroxypropylcellulose) (HPC)",108 % of control
same,T/C,"dose: 0.63 mg/kg/injection, schedule: Q01DX009 (ip), vehicle: Klucel (hydroxypropylcellulose) (HPC)",119 % of control
CCC12CCC(=O)NC1Cc1[nH]c3c(OC)cccc3c1C2 (configuration not stated),T/C,"dose: 100.0 mg/kg/injection, schedule: Q04DX003 (ip), vehicle: saline sonified",100 % of control
same,T/C,"dose: 200.0 mg/kg/injection, schedule: Q04DX003 (ip), vehicle: saline sonified",100 % of control
same,T/C,"dose: 400.0 mg/kg/injection, schedule: Q04DX003 (ip), vehicle: saline sonified",109 % of control
O=C(Nc1cccc2c1N(C(=O)c1ccco1)CCC2)c1ccco1,T/C,[1],91 % of control
same,T/C,"dose: 200.0 mg/kg/injection, schedule: Q04DX003 (ip), vehicle: saline with Tween-80",100 % of control
same,T/C,"dose: 400.0 mg/kg/injection, schedule: Q04DX003 (ip), vehicle: saline with Tween-80",104 % of control
CC(=O)N1CCn2nccc21,T/C,"dose: 100.0 mg/kg/injection, schedule: Q04DX003 (ip), vehicle: water",104 % of control
same,T/C,"dose: 200.0 mg/kg/injection, schedule: Q04DX003 (ip), vehicle: water",90 % of control
same,T/C,"dose: 400.0 mg/kg/injection, schedule: Q04DX003 (ip), vehicle: water",112 % of control
CC1(C)N=C(N)N=C(N)N1c1ccc(CCCCc2cccc(S(=O)(=O)F)c2)c(Cl)c1,T/C,"dose: 1.0 mg/kg/injection, schedule: Q01DX009 (ip), vehicle: saline with Tween-80",119 % of control
same,T/C,"dose: 1.32 mg/kg/injection, schedule: Q01DX009 (ip), vehicle: saline with Tween-80",150 % of control
same,T/C,"dose: 2.0 mg/kg/injection, schedule: Q01DX009 (ip), vehicle: saline with Tween-80",150 % of control
same,T/C,"dose: 3.0 mg/kg/injection, schedule: Q01DX009 (ip), vehicle: saline with Tween-80",154 % of control
same,T/C,"dose: 4.0 mg/kg/injection, schedule: Q01DX009 (ip), vehicle: saline with Tween-80",161 % of control
same,T/C,"dose: 8.0 mg/kg/injection, schedule: Q01DX009 (ip), vehicle: saline with Tween-80",161 % of control and 170 % of control
same,T/C,"dose: 12.0 mg/kg/injection, schedule: Q01DX009 (ip), vehicle: saline with Tween-80",170 % of control
same,T/C,"dose: 12.5 mg/kg/injection, schedule: Q04DX003 (ip), vehicle: saline with Tween-80",109 % of control
same,T/C,"dose: 18.0 mg/kg/injection, schedule: Q01DX009 (ip), vehicle: saline with Tween-80",200 % of control
CCSSC(=Nc1ccccc1)OCC(C)C,T/C,"dose: 50.0 mg/kg/injection, schedule: Q01DX009 (ip), vehicle: other",119 % of control
NC(Cc1cccs1)C(=O)O (configuration not stated),T/C,[2],100 % of control
same,T/C,[3],110 % of control
same,T/C,"dose: 400.0 mg/kg/injection, schedule: Q01DX009 (ip), vehicle: saline with Tween-80",110 % of control
Cc1c[n+]2ccccc2n1C,T/C,"dose: 25.0 mg/kg/injection, schedule: Q01DX009 (ip), vehicle: saline",100 % of control
same,T/C,"dose: 50.0 mg/kg/injection, schedule: Q01DX009 (ip), vehicle: saline",104 % of control
CC(=O)C(C(C)=O)c1cc(NS(=O)(=O)c2ccccc2)ccc1O,T/C,[4],104 % of control
same,T/C,[5],100 % of control
same,T/C,[6],95 % of control
CCCCCCCCCCCCCSCCCCCCCCSCCCCCCCCCCCCC,T/C,[4],95 % of control
same,T/C,[5],90 % of control
same,T/C,[6],100 % of control
CN1c2ccccc2C(=O)NC1c1ccc([N+](=O)[O-])s1 (configuration not stated),T/C,"dose: 50.0 mg/kg/injection, schedule: Q01DX009 (ip), vehicle: saline with Tween-80",95 % of control
same,T/C,[2],100 % of control
same,T/C,[3],91 % of control
C=C1C(=O)OC2/C=C(\C)C3(O)OC(C)(CC(OC(=O)C(C)C)C12)CC3O (configuration not stated),T/C,"dose: 10.0 mg/kg/injection, schedule: Q01DX009 (ip), vehicle: saline",96 % of control
same,T/C,"dose: 40.0 mg/kg/injection, schedule: Q01DX009 (ip), vehicle: saline",96 % of control
Cc1cc2c(cc1C)C(=O)C(N1CCN(C)CC1)CCC2 (configuration not stated),T/C,"dose: 25.0 mg/kg/injection, schedule: Q04DX003 (ip), vehicle: saline with Tween-80",100 % of control
same,T/C,"dose: 50.0 mg/kg/injection, schedule: Q04DX003 (ip), vehicle: saline with Tween-80",104 % of control
same,T/C,[1],86 % of control
C/C=C/C[P+](C)(c1ccccc1)c1ccccc1,T/C,"dose: 0.2 mg/kg/injection, schedule: Q01DX009 (ip), vehicle: saline",104 % of control
same,T/C,"dose: 0.4 mg/kg/injection, schedule: Q01DX009 (ip), vehicle: saline",103 % of control
same,T/C,"dose: 0.8 mg/kg/injection, schedule: Q01DX009 (ip), vehicle: saline",104 % of control
CC(=O)Nc1ccc(C=O)cc1[N+](=O)[O-],T/C,"dose: 100.0 mg/kg/injection, schedule: Q01DX009 (ip), vehicle: Klucel (hydroxypropylcellulose) (HPC)",110 % of control
same,T/C,"dose: 200.0 mg/kg/injection, schedule: Q01DX009 (ip), vehicle: Klucel (hydroxypropylcellulose) (HPC)",100 % of control
same,T/C,"dose: 400.0 mg/kg/injection, schedule: Q01DX009 (ip), vehicle: Klucel (hydroxypropylcellulose) (HPC)",100 % of control
